In patent publication US8343963B2, “Sulfamoyl-phenyl-ureido compounds and their use as medicament” (4SC AG, priority 2009, dated 2013):

Tested on: multiresistant Dd2 strain of Plasmodium falciparum
Test: Antiplasmodial activity against Dd2 strain of Plasmodium falciparum ([8-3H]hypoxanthine incorporation)
Type: cell-based
Conditions: 66 h, P. falciparum Dd2, 48 h + 18 h with [8-3H]hypoxanthine, 50% parasite growth inhibition, read-out: Antiplasmodia activity (IC50 class)
Procedure: For the determination of the antiplasmodial activity of the compounds described above, the multiresistant Dd2 strain of Plasmodium falciparum was used. The incorporation of [8-^3H]hypoxanthine into the parasitic nucleic acids was measured. The plasmodia were incubated at 0.3% parasitaemia and an erythrocyte haematocrit of 2.5% in the presence of different concentrations of the compounds in a final volume of 200 μl. The medium employed was RPMI 1640 which contained 10% of heat-treated human serum and 3 mg/l of gentamycin. In the incubations, the concentrations of the compounds varied from 0.001 to 100 μM. After 48 h, each batch was treated with 50 μl of [8-^3H]hypoxanthine (1 mCi/ml) and incubated for a further 18 h. The cells were filtered off, washed and suspended in 20 μl of scintillation fluid. The radioactive hypoxanthine absorbed by the parasites was then quantified using a scintillation counter. The results were presented graphically and the IC50 value was determined using a fitting function. The value IC50, the ‘inhibition constant’, indicates the value in μMol/l at which 50% parasite growth inhibition occurs (R. E. Desjardins, et al., Antimicrobiol. Agent Chemother. 16, pp. 710-718, 1979; J. D. Chulay, et al., Exp. Parasitol. 55, pp. 138-146, 1983).

Structure (SMILES)	IC50
CCCCN1CCN(C(=N)c2cccc(NC(=O)Nc3ccc(S(=O)(=O)NCc4ccccc4)cc3)c2)CC1 [Compound 36, N-benzyl-4-(3-(3-((4-butylpiperazin-1-yl)(imino)methyl)phenyl)ureido)benzenesulfonamide]	210 to 990 nM
C=CCN1CCN(C(=N)c2cccc(NC(=O)Nc3ccc(S(=O)(=O)NCc4ccc(S(N)(=O)=O)cc4)cc3)c2)CC1 [Compound 39, 4-(3-(3-((4-allylpiperazin-1-yl)(imino)methyl)phenyl)ureido)-N-(4-sulfamoylbenzyl)benzenesulfonamide]	< 20 nM
CCCCN1CCN(C(=N)c2cccc(NC(=O)Nc3ccc(S(=O)(=O)NNc4ccc(S(N)(=O)=O)cc4)cc3)c2)CC1 [Compound 40, 4-(2-(4-(3-(3-((4-butylpiperazin-1-yl)(imino)methyl)phenyl)ureido)phenylsulfonyl)hydrazinyl)benzenesulfonamide]	≥ 1000 nM
CCCCN1CCN(C(=N)c2cccc(NC(=O)Nc3ccc(S(=O)(=O)NC(C)c4ccc(S(N)(=O)=O)cc4)cc3)c2)CC1 (stereo not shown) [Compound 42, 4-(3-(3-((4-butylpiperazin-1-yl)(imino)methyl)phenyl)ureido)-N-(1-(4-sulfamoylphenyl)ethyl)benzenesulfonamide]	210 to 990 nM
N=C(c1cccc(NC(=O)Nc2ccc(S(=O)(=O)NCc3ccc(S(N)(=O)=O)cc3)cc2)c1)N1CCS(=O)(=O)CC1 [Compound 44, 4-(3-(3-((1,1-dioxidothiomorpholino)(imino)methyl)phenyl)ureido)-N-(4-sulfamoylbenzyl)benzenesulfonamide]	20 to 200 nM
N=C(c1cccc(NC(=O)Nc2ccc(S(=O)(=O)NCc3ccc(S(N)(=O)=O)cc3)cc2)c1)N1CCN(Cc2ccncc2)CC1 [Compound 45, 4-(3-(3-(imino (4-(pyridin-4-ylmethyl)piperazin-1-yl)methyl)phenyl)ureido)-N-(4-sulfamoylbenzyl)benzenesulfonamide]	210 to 990 nM
N=C(c1cccc(NC(=O)Nc2ccc(S(=O)(=O)NCc3ccc(S(N)(=O)=O)cc3)cc2)c1)N1CCCC1 [Compound 46, 4-(3-(3-(imino(pyrrolidin-1-yl)methyl)phenyl)ureido)-N-(4-sulfamoylbenzyl)benzenesulfonamide]	20 to 200 nM
CCN(CC)CCN(C)C(=N)c1cccc(NC(=O)Nc2ccc(S(=O)(=O)NCc3ccc(S(N)(=O)=O)cc3)cc2)c1 [Compound 47, N-(2-(diethylamino)ethyl)-N-methyl-3-(3-(4-(N-(4-sulfamoylbenzyl)sulfamoyl)phenyl)ureido)benzimidamide]	20 to 200 nM
N=C(c1cccc(NC(=O)Nc2ccc(S(=O)(=O)NCc3ccc(S(N)(=O)=O)cc3)cc2)c1)N1CCC(O)CC1 [Compound 48, 4-(3-(3-((4-hydroxypiperidin-1-yl)(imino)methyl)phenyl)ureido)-N-(4-sulfamoylbenzyl)benzenesulfonamide]	20 to 200 nM
CN(C)C1CCN(C(=N)c2cccc(NC(=O)Nc3ccc(S(=O)(=O)NCc4ccc(S(N)(=O)=O)cc4)cc3)c2)C1 (stereo not shown) [Compound 49, 4-(3-(3-((3-(dimethylamino)pyrrolidin-1-yl)(imino)methyl)phenyl)ureido)-N-(4-sulfamoylbenzyl)benzenesulfonamide]	20 to 200 nM
N=C(c1cccc(NC(=O)Nc2ccc(S(=O)(=O)NCc3ccc(S(N)(=O)=O)cc3)cc2)c1)N1CCCC1CN1CCCC1 (stereo not shown) [Compound 50, 4-(3-(3-(imino(2-(pyrrolidin-1-ylmethyl)pyrrolidin-1-yl)methyl)phenyl)ureido)-N-(4-sulfamoylbenzyl)benzenesulfonamide]	20 to 200 nM
CC(C)(C)OC(=O)N1CCN(C(=N)c2cccc(NC(=O)Nc3ccc(S(=O)(=O)NCc4ccc(S(N)(=O)=O)cc4)cc3)c2)CC1 [Compound 51, tert-butyl 4-(imino(3-(3-(4-(N-(4-sulfamoylbenzyl)sulfamoyl)phenyl)ureido)phenyl)methyl)piperazine-1-carboxylate]	210 to 990 nM
CCCCCN1CCN(C(=N)c2cccc(NC(=O)Nc3ccc(S(=O)(=O)NCc4ccc(S(N)(=O)=O)cc4)cc3)c2)CC1 [Compound 55, 4-(3-(3-(imino(4-pentylpiperazin-1-yl)methyl)phenyl)ureido)-N-(4-sulfamoylbenzyl)benzenesulfonamide]	< 20 nM
CCCCCCCN1CCN(C(=N)c2cccc(NC(=O)Nc3ccc(S(=O)(=O)NCc4ccc(S(N)(=O)=O)cc4)cc3)c2)CC1 [Compound 56, 4-(3-(3-((4-heptylpiperazin-1-yl)(imino)methyl)phenyl)ureido)-N-(4-sulfamoylbenzyl)benzenesulfonamide]	20 to 200 nM
CC(=O)N1CCN(C(=N)c2cccc(NC(=O)Nc3ccc(S(=O)(=O)NCc4ccc(S(N)(=O)=O)cc4)cc3)c2)CC1 [Compound 57, 4-(3-(3-((4-acetylpiperazin-1-yl)(imino)methyl)phenyl)ureido)-N-(4-sulfamoylbenzyl)benzenesulfonamide]	20 to 200 nM
CCCCC(=O)N1CCN(C(=N)c2cccc(NC(=O)Nc3ccc(S(=O)(=O)NCc4ccc(S(N)(=O)=O)cc4)cc3)c2)CC1 [Compound 59, 4-(3-(3-(imino(4-pentanoylpiperazin-1-yl)methyl)phenyl)ureido)-N-(4-sulfamoylbenzyl)benzenesulfonamide]	20 to 200 nM
CCOC(=O)N1CCN(C(=N)c2cccc(NC(=O)Nc3ccc(S(=O)(=O)NCc4ccc(S(N)(=O)=O)cc4)cc3)c2)CC1 [Compound 61, ethyl 4-(imino(3-(3-(4-(N-(4-sulfamoylbenzyl)sulfamoyl)phenyl)ureido)phenyl)methyl)piperazine-1-carboxylate]	< 20 nM
CCCOC(=O)N1CCN(C(=N)c2cccc(NC(=O)Nc3ccc(S(=O)(=O)NCc4ccc(S(N)(=O)=O)cc4)cc3)c2)CC1 [Compound 62, propyl 4-(imino(3-(3-(4-(N-(4-sulfamoylbenzyl)sulfamoyl)phenyl)ureido)phenyl)methyl)piperazine-1-carboxylate]	< 20 nM
N=C(c1cccc(NC(=O)Nc2ccc(S(=O)(=O)NCc3ccc(S(N)(=O)=O)cc3)cc2)c1)N1CCN(CC2OCCO2)CC1 [Compound 67, 4-(3-(3-((4-((1,3-dioxolan-2-yl)methyl)piperazin-1-yl)(imino)methyl)phenyl)ureido)-N-(4-sulfamoylbenzyl)benzene sulfonamide]	20 to 200 nM
N=C(c1cccc(NC(=O)Nc2ccc(S(=O)(=O)NCc3ccc(S(N)(=O)=O)cc3)cc2)c1)N1CCN(CC2CCCO2)CC1 (stereo not shown) [Compound 68, 4-(3-(3-(imino(4-((tetrahydrofuran-2-yl)methyl)piperazin-1-yl)methyl)phenyl)ureido)-N-(4-sulfamoylbenzyl)benzene sulfonamide]	20 to 200 nM
CCCCN1CCN(C(=N)c2ccc(NC(=O)Nc3ccc(S(=O)(=O)NCc4ccc(S(N)(=O)=O)cc4)cc3)cc2)CC1 [Compound 71, 4-(3-(4-((4-butylpiperazin-1-yl)(imino)methyl)phenyl)ureido)-N-(4-sulfamoylbenzyl)benzene sulfonamide]	20 to 200 nM

Tested on: not listed separately
Test: Solubility and solubility-range determination in 50 mM phosphate buffer at different pH
Type: physicochemical
Conditions: aqueous buffer, kinetic from dmso stock, pH 4, 50 mM phosphate buffer, 1% DMSO, 23° C., read-out: Solubility or solubility range
Procedure: The compounds were dissolved in DMSO at a concentration of 20 mg/ml. These stock solutions were further diluted 1:1 with DMSO (50 μl solution+50 μl DMSO) in seven steps. Subsequently, these solutions were diluted 1:100 (5 μl DMSO-stock+495 μl 50 mM phosphate buffer) in all four pH buffers (respectively: pH=4; pH=6; pH=7.4; pH=9) resulting in a final DMSO concentration of 1% in the buffers. These dilutions were vigorously mixed and transferred into 96-well reading plate. The plates were incubated in a shaker (600 rpm) at 23° C. for 24 hours. After that, the contents of the wells were mixed with a pipette and optical density (OD) was recorded at wavelengths of 550 nm; 600 nm; 650 nm and 700 nm in the Tecan Sunrise plate reader. The cut-off OD sum for an undissolved concentration of a compound was defined as follows: Cut off OD sum=mean blank OD+0.050 OD. For the determination of the solubility range, the following rule was applied: OD>cut off=>compound not dissolved at this concentration OD<cut-off=>compound dissolved at this concentration For the determination of the solubility, a titration curve (OD/concentration) was prepared and the concentrations were determined based on the measured OD of the mixture supernatant after centrifugation. The solubility values are given in μg/ml (table 3).

solubility at 24 h	Structure (SMILES)
> 200 µg/mL	N=C(c1cccc(NC(=O)Nc2ccc(S(=O)(=O)NCc3ccc(S(N)(=O)=O)cc3)cc2)c1)N1CCS(=O)(=O)CC1 [Compound 44, 4-(3-(3-((1,1-dioxidothiomorpholino)(imino)methyl)phenyl)ureido)-N-(4-sulfamoylbenzyl)benzenesulfonamide]

Same assay, conditions: aqueous buffer, kinetic from dmso stock, pH 6, 50 mM phosphate buffer, 1% DMSO, 23° C., read-out: Solubility or solubility range

solubility at 24 h	Structure (SMILES)
> 200 µg/mL	N=C(c1cccc(NC(=O)Nc2ccc(S(=O)(=O)NCc3ccc(S(N)(=O)=O)cc3)cc2)c1)N1CCS(=O)(=O)CC1 [Compound 44, 4-(3-(3-((1,1-dioxidothiomorpholino)(imino)methyl)phenyl)ureido)-N-(4-sulfamoylbenzyl)benzenesulfonamide]

Same assay, conditions: aqueous buffer, kinetic from dmso stock, pH 7.4, 50 mM phosphate buffer, 1% DMSO, 23° C., read-out: Solubility or solubility range

solubility at 24 h	Structure (SMILES)
> 200 µg/mL	N=C(c1cccc(NC(=O)Nc2ccc(S(=O)(=O)NCc3ccc(S(N)(=O)=O)cc3)cc2)c1)N1CCS(=O)(=O)CC1 [Compound 44, 4-(3-(3-((1,1-dioxidothiomorpholino)(imino)methyl)phenyl)ureido)-N-(4-sulfamoylbenzyl)benzenesulfonamide]

Same assay, conditions: aqueous buffer, kinetic from dmso stock, pH 9, 50 mM phosphate buffer, 1% DMSO, 23° C., read-out: Solubility or solubility range

solubility at 24 h	Structure (SMILES)
> 200 µg/mL	N=C(c1cccc(NC(=O)Nc2ccc(S(=O)(=O)NCc3ccc(S(N)(=O)=O)cc3)cc2)c1)N1CCS(=O)(=O)CC1 [Compound 44, 4-(3-(3-((1,1-dioxidothiomorpholino)(imino)methyl)phenyl)ureido)-N-(4-sulfamoylbenzyl)benzenesulfonamide]
